Results from ChEMBL document CHEMBL1201862, “PubChem BioAssay data set” (2004).
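Five compound concentrations were applied to cells in 96-well plates for 48 hours; endpoints were derived by simple linear interpolation of the resulting dose-response curve. GI50 marks 50% less growth.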 The source made the active and inactive calls. Cut-off read from the data, not from the text of the source: active = GI50 up to about 1.1 µM and inactive = higher.

Legend:
Assay in all cases: DTP human tumour cell line panel, 48 h
LOX IMVI = test system: LOX IMVI
OVCAR-4 = test system: OVCAR-4
ACHN = test system: ACHN
UACC-257 = test system: UACC-257
Malme-3M = test system: Malme-3M
IGROV-1 = test system: IGROV-1
786-0 = test system: 786-0
SK-MEL-28 = test system: SK-MEL-28
HCT-15 = test system: HCT-15
NCI-H460 = test system: NCI-H460
RXF 393 = test system: RXF 393
K562 = test system: K562
PC-3 = test system: PC-3
CAKI-1 = test system: CAKI-1
UO-31 = test system: UO-31
U-251 = test system: U-251
NCI/ADR-RES = test system: NCI/ADR-RES
SNB-19 = test system: SNB-19
MOLT-4 = test system: MOLT-4
SK-OV-3 = test system: SK-OV-3

Row | SMILES | GI50 (LOX IMVI) | GI50 (OVCAR-4) | GI50 (ACHN) | GI50 (UACC-257) | GI50 (Malme-3M) | GI50 (IGROV-1) | GI50 (786-0) | GI50 (SK-MEL-28) | GI50 (HCT-15) [µM] | GI50 (NCI-H460) | GI50 (RXF 393) | GI50 (K562) | GI50 (PC-3) | GI50 (CAKI-1) | GI50 (UO-31) | GI50 (U-251) | GI50 (NCI/ADR-RES) | GI50 (SNB-19) | GI50 (MOLT-4) | GI50 (SK-OV-3)
1 | COc1ccc(-n2c(C)nc3ccc(NC4OC(COC(C)=O)C(OC(C)=O)C(OC(C)=O)C4OC(C)=O)cc3c2=O)cc1 (stereo not drawn) | 28.5 µM (inactive) | > 100 µM (inactive) | > 100 µM (inactive) | > 100 µM (inactive) | 69.3 µM (inactive) | > 100 µM (inactive) | 24.8 µM (inactive) | 34 µM (inactive) | 76 | > 100 µM (inactive) | 27.8 µM (inactive) | 36.7 µM (inactive) | > 100 µM (inactive) | 19.7 µM (inactive) | > 100 µM (inactive) | > 100 µM (inactive) | > 100 µM (inactive) | > 100 µM (inactive) | 27.4 µM (inactive) | –
2 | COC(=O)CC1(O)C(/C=C/c2ccccc2)C(C(=O)OC)C(=O)C(C(=O)OC)C1C(=O)OC (stereo not drawn) | 26.7 µM (inactive) | > 100 µM (inactive) | > 100 µM (inactive) | > 100 µM (inactive) | > 100 µM (inactive) | > 100 µM (inactive) | > 100 µM (inactive) | > 100 µM (inactive) | > 100 | > 100 µM (inactive) | > 100 µM (inactive) | > 100 µM (inactive) | 78.7 µM (inactive) | > 100 µM (inactive) | > 100 µM (inactive) | 79.3 µM (inactive) | 85.3 µM (inactive) | 45.6 µM (inactive) | > 100 µM (inactive) | > 100 µM (inactive)
3 | O=C(/C=C/c1ccc(OCCSCCCCCCCCCCSCCOc2ccc(/C=C/C(=O)c3ccc(Cl)cc3)cc2)cc1)c1ccc(Cl)cc1 | > 100 µM (inactive) | > 100 µM (inactive) | > 88.1 µM (inactive) | > 100 µM (inactive) | > 100 µM (inactive) | > 100 µM (inactive) | 75.3 µM (inactive) | > 100 µM (inactive) | > 100 | > 100 µM (inactive) | 43.6 µM (inactive) | > 100 µM (inactive) | > 100 µM (inactive) | > 83.2 µM (inactive) | > 100 µM (inactive) | 65.8 µM (inactive) | > 100 µM (inactive) | > 74.3 µM (inactive) | > 100 µM (inactive) | 65.5 µM (inactive)
4 | Cc1n2nc(N)sc2n[n+]1Cc1ccccc1 | > 100 µM (inactive) | > 100 µM (inactive) | > 100 µM (inactive) | > 100 µM (inactive) | > 100 µM (inactive) | 58.9 µM (inactive) | > 100 µM (inactive) | > 100 µM (inactive) | > 100 | > 10 µM (inactive) | > 100 µM (inactive) | 47.5 µM (inactive) | > 100 µM (inactive) | > 100 µM (inactive) | > 100 µM (inactive) | 77.3 µM (inactive) | > 100 µM (inactive) | > 100 µM (inactive) | > 100 µM (inactive) | > 100 µM (inactive)
5 | CN1CCN(C(=O)CCC(=O)Nc2cc3c(c4ccccc24)-c2ccc4ccccc4c2C3)CC1 | 1.77 µM (inactive) | 1.5 µM (inactive) | 2.12 µM (inactive) | 1.74 µM (inactive) | 2.03 µM (inactive) | 1.15 µM (inactive) | 1.69 µM (inactive) | 1.79 µM (inactive) | 1.82 | 1.82 µM (inactive) | 1.73 µM (inactive) | 1.91 µM (inactive) | 1.64 µM (inactive) | 1.53 µM (inactive) | 1.65 µM (inactive) | 2.04 µM (inactive) | 2.21 µM (inactive) | 2.14 µM (inactive) | 1.77 µM (inactive) | 1.6 µM (inactive)
6 | COc1ccc(/N=N/C(=O)NC(CC(C)C)C(N)=O)cc1 (stereo not drawn) | 9.48 µM (inactive) | > 31.6 µM (inactive) | > 31.1 µM (inactive) | 23.6 µM (inactive) | > 100 µM (inactive) | > 100 µM (inactive) | > 31.6 µM (inactive) | > 69 µM (inactive) | > 24.4 | 11.6 µM (inactive) | > 31.6 µM (inactive) | 1.43 µM (inactive) | > 100 µM (inactive) | > 31.6 µM (inactive) | 5.41 µM (inactive) | > 100 µM (inactive) | 55.5 µM (inactive) | > 100 µM (inactive) | 7.74 µM (inactive) | > 100 µM (inactive)
7 | CCCCCCCCCc1c(O)c(O)c(CCCCCCCCC)c(CCCCCCCCC)c1CCCCCCCCC | > 100 µM (inactive) | > 100 µM (inactive) | > 100 µM (inactive) | > 100 µM (inactive) | 96.8 µM (inactive) | > 100 µM (inactive) | > 100 µM (inactive) | > 100 µM (inactive) | > 100 | > 100 µM (inactive) | > 100 µM (inactive) | 65.9 µM (inactive) | > 100 µM (inactive) | > 100 µM (inactive) | – | > 100 µM (inactive) | > 100 µM (inactive) | > 100 µM (inactive) | > 100 µM (inactive) | > 100 µM (inactive)
